{
  "source": "patent US11739100B2",
  "about": "“2,3-dihydro-1h-imidazo{1,2-a}pyrimidin-5-one and this 1,2,3,4-tetrahydropyrimido{1,2-a}pyrimidin-6-one derivatives comprising a substituted morpholine, preparation thereof and pharmaceutical use thereof” (SANOFI, priority 2012, dated 2023)",
  "target": "T1, recombinant Vps34 (Homo sapiens, UniProt Q8NEB9)",
  "T1 construct": "purchased Invitrogen PV5126",
  "T1 sequence (Q8NEB9 whole entry)": "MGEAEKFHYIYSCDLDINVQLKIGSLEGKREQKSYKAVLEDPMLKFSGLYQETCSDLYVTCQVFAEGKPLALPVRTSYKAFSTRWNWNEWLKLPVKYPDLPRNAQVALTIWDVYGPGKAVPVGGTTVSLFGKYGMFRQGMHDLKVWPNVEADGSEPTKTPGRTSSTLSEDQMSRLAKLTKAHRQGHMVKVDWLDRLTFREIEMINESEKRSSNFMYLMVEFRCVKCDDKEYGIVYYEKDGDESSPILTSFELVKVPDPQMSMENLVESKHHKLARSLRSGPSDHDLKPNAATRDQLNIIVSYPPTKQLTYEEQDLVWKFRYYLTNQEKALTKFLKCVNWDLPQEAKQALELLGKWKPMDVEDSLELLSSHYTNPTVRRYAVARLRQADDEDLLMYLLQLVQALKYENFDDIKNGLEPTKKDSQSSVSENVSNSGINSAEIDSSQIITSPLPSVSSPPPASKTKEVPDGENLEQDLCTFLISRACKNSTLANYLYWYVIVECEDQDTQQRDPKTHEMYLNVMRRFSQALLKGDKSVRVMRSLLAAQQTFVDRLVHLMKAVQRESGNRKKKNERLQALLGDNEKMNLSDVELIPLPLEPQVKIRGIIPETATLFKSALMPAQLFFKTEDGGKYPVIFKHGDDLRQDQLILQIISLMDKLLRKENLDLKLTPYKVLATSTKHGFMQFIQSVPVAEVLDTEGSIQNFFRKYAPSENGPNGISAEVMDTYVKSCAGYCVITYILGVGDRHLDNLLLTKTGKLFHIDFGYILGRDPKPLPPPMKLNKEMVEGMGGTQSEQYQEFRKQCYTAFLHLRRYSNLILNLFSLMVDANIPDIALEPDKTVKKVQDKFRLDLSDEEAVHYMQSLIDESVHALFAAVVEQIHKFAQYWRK",
  "experiment": "Phosphorylation of phosphatidylinositol (PI) by Vps34 in vitro, ADP detected by TR-FRET (HTRF Transcreener ADP)",
  "type": "biochemical",
  "settings": "10 μM ATP, 55 μg/ml PI, approximately 3 nM Vps34, 1 hour at ambient temperature; absolute IC50, mean of two independent experiments; read-out: IC50 activity range",
  "data": [
    {"smiles": "C[C@@H]1COC[C@@H](C)N1c1cc(=O)n2c(n1)N(Cc1ccc(Cl)nc1)[C@H](C(F)(F)F)CC2", "note": "[Example 156, (S)-9-(6-Chloro-pyridin-3-ylmethyl)-2-((3R,5R)-3,5-dimethyl-morpholin-4-yl)-8-trifluoromethyl-6,7,8,9-tetrahydro-pyrimido[1,2-a]-pyrimidin-4-one]", "values": [
      {"measurement": "IC50", "result": "10 to 100", "unit": "nM"}
    ]},
    {"smiles": "C[C@@H]1COCCN1c1cc(=O)n2c(n1)N(c1ccc(C3CC3)nc1)[C@H](C(F)(F)F)CC2", "note": "[Example 302, (S)-9-(6-Cyclopropyl-pyridin-3-yl)-2-((R)-3-methylmorpholin-4-yl)-8-trifluoromethyl-6,7,8,9-tetrahydro-pyrimido[1,2-a]-pyrimidin-4-one]", "values": [
      {"measurement": "IC50", "result": "< 10", "unit": "nM"}
    ]},
    {"smiles": "C[C@@H]1COCCN1c1cc(=O)n2c(n1)N(Cc1ccnn1C(F)F)[C@](C)(C(F)(F)F)CC2", "note": "[Example 214, (S)-9-(2-Difluoromethyl-2H-pyrazol-3-ylmethyl)-8-methyl-2-((R)-3-methylmorpholin-4-yl)-8-trifluoromethyl-6,7,8,9-tetrahydro-pyrimido[1,2-a]-pyrimidin-4-one]", "values": [
      {"measurement": "IC50", "result": "< 10", "unit": "nM"}
    ]},
    {"smiles": "C[C@@H]1COCCN1c1cc(=O)n2c(n1)N(CCOCC(F)(F)F)[C@H](C(F)(F)F)CC2", "note": "[Example 82, (S)-2-((R)-3-Methyl-morpholin-4-yl)-9-[2-(2,2,2-trifluoro-ethoxy)ethyl]-8-trifluoromethyl-6,7,8,9-tetrahydro-pyrimido[1,2-a]-pyrimidin-4-one]", "values": [
      {"measurement": "IC50", "result": "< 10", "unit": "nM"}
    ]},
    {"smiles": "Cc1nocc1C(=O)CN1c2nc(N3CCOC[C@H]3C)cc(=O)n2CC[C@H]1C(F)(F)F", "note": "[Example 268, (S)-9-[2-(3-Methyl-isoxazol-4-yl)-2-oxo-ethyl]-2-((R)-3-methyl-morpholin-4-yl)-8-trifluoromethyl-6,7,8,9-tetrahydro-pyrimido[1,2-a]-pyrimidin-4-one]", "values": [
      {"measurement": "IC50", "result": "> 100", "unit": "nM"}
    ]},
    {"smiles": "C[C@@H]1COCCN1c1nc2n(c(=O)c1F)CC[C@@H](C(F)(F)F)N2CC(C)(C)O", "note": "[Example 49, (S)-3-Fluoro-9-(2-hydroxy-2-methyl-propyl)-2-((R)-3-methylmorpholin-4-yl)-8-trifluoromethyl-6,7,8,9-tetrahydro-pyrimido[1,2-a]-pyrimidin-4-one]", "values": [
      {"measurement": "IC50", "result": "< 10", "unit": "nM"}
    ]},
    {"smiles": "CC(C)C(O)CN1c2nc(N3CCOC[C@H]3C)cc(=O)n2CC[C@H]1C(F)(F)F", "note": "(stereo partly drawn) [Example 287, (S)-9-(2-Hydroxy-3-methylbutyl)-2-((R)-3-methylmorpholin-4-yl)-8-trifluoromethyl-6,7,8,9-tetrahydro-pyrimido[1,2-a]-pyrimidin-4-one]", "values": [
      {"measurement": "IC50", "result": "< 10", "unit": "nM"}
    ]},
    {"smiles": "O=C(CN1c2nc(N3CC4CCC(C3)O4)cc(=O)n2CC[C@H]1C(F)(F)F)c1ccccn1", "note": "[Example 171, (S)-2-(8-Oxa-3-aza-bicyclo[3.2.1]oct-3-yl)-9-(2-oxo-2-pyridin-2-ylethyl)-8-trifluoromethyl-6,7,8,9-tetrahydro-pyrimido[1,2-a]-pyrimidin-4-one]", "values": [
      {"measurement": "IC50", "result": "10 to 100", "unit": "nM"}
    ]},
    {"smiles": "CC(C)c1noc(CN2c3nc(N4CCOC[C@H]4C)cc(=O)n3CC[C@H]2C(F)(F)F)n1", "note": "[Example 226, (S)-9-(3-Isopropyl-[1,2,4]oxadiazol-5-yl-methyl)-2-((R)-3-methylmorpholin-4-yl)-8-trifluoromethyl-6,7,8,9-tetrahydro-pyrimido[1,2-a]-pyrimidin-4-one]", "values": [
      {"measurement": "IC50", "result": "< 10", "unit": "nM"}
    ]},
    {"smiles": "C[C@@H]1COCCN1c1cc(=O)n2c(n1)N(C[C@H](F)c1ccccc1)[C@H](C(F)(F)F)CC2", "note": "[Example 295, (S)-9-(2-Fluoro-2-phenylethyl)-2-((R)-3-methylmorpholin-4-yl)-8-trifluoromethyl-6,7,8,9-tetrahydro-pyrimido[1,2-a]-pyrimidin-4-one]", "values": [
      {"measurement": "IC50", "result": "< 10", "unit": "nM"}
    ]},
    {"smiles": "C[C@@H]1COCCN1c1nc2n(c(=O)c1F)CC[C@@H](C(F)(F)F)N2Cc1cnco1", "note": "[Example 111, (S)-3-Fluoro-2-((R)-3-methylmorpholin-4-yl)-9-oxazol-5-ylmethyl-8-trifluoromethyl-6,7,8,9-tetrahydro-pyrimido[1,2-a]-pyrimidin-4-one]", "values": [
      {"measurement": "IC50", "result": "< 10", "unit": "nM"}
    ]},
    {"smiles": "C[C@@H]1COCCN1c1cc(=O)n2c(n1)N(Cc1ccno1)[C@H](C(F)(F)F)CC2", "note": "[Example 36, (S)-9-Isoxazol-5-yl-methyl-2-((R)-3-methylmorpholin-4-yl)-8-trifluoromethyl-6,7,8,9-tetrahydro-pyrimido[1,2-a]-pyrimidin-4-one]", "values": [
      {"measurement": "IC50", "result": "< 10", "unit": "nM"}
    ]},
    {"smiles": "C[C@@H]1COCCN1c1cc(=O)n2c(n1)N(CC(=O)C1CCCC1)[C@H](C(F)(F)F)CC2", "note": "[Example 244, (S)-9-(2-Cyclopentyl-2-oxoethyl)-2-((R)-3-methylmorpholin-4-yl)-8-trifluoromethyl-6,7,8,9-tetrahydro-pyrimido[1,2-a]-pyrimidin-4-one]", "values": [
      {"measurement": "IC50", "result": "< 10", "unit": "nM"}
    ]},
    {"smiles": "C[C@@H]1COCCN1c1nc2n(c(=O)c1F)[C@@H](C(F)(F)F)CCN2CC(=O)c1cccnc1", "note": "[Example 126, (R)-3-Fluoro-2-((R)-3-methylmorpholin-4-yl)-9-(2-oxo-2-pyridin-3-ylethyl)-6-trifluoromethyl-6,7,8,9-tetrahydro-pyrimido[1,2-a]-pyrimidin-4-one]", "values": [
      {"measurement": "IC50", "result": "< 10", "unit": "nM"}
    ]},
    {"smiles": "C[C@@H]1COCCN1c1cc(=O)n2c(n1)N(Cc1ccc(Cl)nc1)[C@H](C(F)(F)F)CC2", "note": "[Example 35, (S)-9-(6-Chloro-pyridin-3-ylmethyl)-2-((R)-3-methyl-morpholin-4-yl)-8-trifluoromethyl-6,7,8,9-tetrahydro-pyrimido[1,2-a]-pyrimidin-4-one]", "values": [
      {"measurement": "IC50", "result": "< 10", "unit": "nM"}
    ]},
    {"smiles": "C[C@H]1COCCN1c1cc(=O)n2c(n1)N(Cc1ccc(Cl)s1)[C@H](C(F)(F)F)CC2", "note": "[Example 178, (S)-9-(5-Chloro-thiophen-2-ylmethyl)-2-((S)-3-methyl-morpholin-4-yl)-8-trifluoromethyl-6,7,8,9-tetrahydro-pyrimido[1,2-a]-pyrimidin-4-one]", "values": [
      {"measurement": "IC50", "result": "10 to 100", "unit": "nM"}
    ]},
    {"smiles": "Cc1nc(CN2c3nc(N4CCOC[C@H]4C)cc(=O)n3CC[C@H]2C(F)(F)F)no1", "note": "[Example 2, (S)-2-((R)-3-Methyl-morpholin-4-yl)-9-(5-methyl-[1,2,4]oxadiazol-3-yl-methyl)-8-trifluoromethyl-6,7,8,9-tetrahydro-pyrimido[1,2-a]-pyrimidin-4-one]", "values": [
      {"measurement": "IC50", "result": "< 10", "unit": "nM"}
    ]},
    {"smiles": "CC(C)C(=O)CN1c2nc(N3CCOC[C@H]3C)c(F)c(=O)n2CC[C@H]1C(F)(F)F", "note": "[Example 4, (S)-3-Fluoro-2-((R)-3-methylmorpholin-4-yl)-9-(3-methyl-2-oxo-butyl)-8-trifluoromethyl-6,7,8,9-tetrahydro-pyrimido[1,2-a]-pyrimidin-4-one]", "values": [
      {"measurement": "IC50", "result": "< 10", "unit": "nM"}
    ]},
    {"smiles": "C[C@@H]1COCCN1c1cc(=O)n2c(n1)N(Cc1ccc(Cl)cn1)[C@H](C(F)(F)F)CC2", "note": "[Example 86, (S)-9-(5-Chloro-pyridin-2-ylmethyl)-2-((R)-3-methyl-morpholin-4-yl)-8-trifluoromethyl-6,7,8,9-tetrahydro-pyrimido[1,2-a]-pyrimidin-4-one]", "values": [
      {"measurement": "IC50", "result": "< 10", "unit": "nM"}
    ]},
    {"smiles": "C[C@@H]1COCCN1c1cc(=O)n2c(n1)N(CC(=O)c1ccccc1)[C@H](C(F)(F)F)CC2", "note": "[Example 99, (S)-2-((R)-3-Methyl-morpholin-4-yl)-9-(2-oxo-2-phenylethyl)-8-trifluoromethyl-6,7,8,9-tetrahydro-pyrimido[1,2-a]-pyrimidin-4-one]", "values": [
      {"measurement": "IC50", "result": "< 10", "unit": "nM"}
    ]},
    {"smiles": "C[C@@H]1COCCN1c1cc(=O)n2c(n1)N(CC(=O)c1ccccn1)[C@H](C(F)(F)F)CC2", "note": "[Example 1, (S)-2-((R)-3-Methyl-morpholin-4-yl)-9-(2-oxo-2-pyridin-2-yl-ethyl)-8-trifluoromethyl-6,7,8,9-tetrahydro-pyrimido[1,2-a]-pyrimidin-4-one]", "values": [
      {"measurement": "IC50", "result": "< 10", "unit": "nM"}
    ]},
    {"smiles": "C[C@@H]1COCCN1c1cc(=O)n2c(n1)N(CC(O)c1ccccn1)[C@H](C(F)(F)F)CC2", "note": "(single isomer, unassigned) [Example 212]", "values": [
      {"measurement": "IC50", "result": "< 10", "unit": "nM"}
    ]},
    {"smiles": "COc1cc(N2CC[C@H](C(F)(F)F)n3c2nc(N2CCOC[C@H]2C)c(F)c3=O)ccn1", "note": "[Example 119, (R)-3-Fluoro-9-(2-methoxypyridin-4-yl)-2-((R)-3-methyl-morpholin-4-yl)-6-trifluoromethyl-6,7,8,9-tetrahydro-pyrimido[1,2-a]-pyrimidin-4-one]", "values": [
      {"measurement": "IC50", "result": "< 10", "unit": "nM"}
    ]},
    {"smiles": "CCC(CC)C(=O)CN1c2nc(N3CCOC[C@H]3C)c(F)c(=O)n2CC[C@H]1C(F)(F)F", "note": "[Example 282, (S)-9-(3-Ethyl-2-oxo-pentyl)-3-fluoro-2-((R)-3-methylmorpholin-4-yl)-8-trifluoromethyl-6,7,8,9-tetrahydro-pyrimido[1,2-a]-pyrimidin-4-one]", "values": [
      {"measurement": "IC50", "result": "< 10", "unit": "nM"}
    ]},
    {"smiles": "C[C@@H]1COCCN1c1nc2n(c(=O)c1F)C[C@@](C)(C(F)(F)F)N2CC(=O)c1ccccn1", "note": "[Example 199, (S)-6-Fluoro-2-methyl-7-((R)-3-methyl-morpholin-4-yl)-1-(2-oxo-2-pyridin-2-yl-ethyl)-2-trifluoromethyl-2,3-dihydro-1H-imidazo[1,2-a]-pyrimidin-5-one]", "values": [
      {"measurement": "IC50", "result": "< 10", "unit": "nM"}
    ]},
    {"smiles": "O=c1cc(N2CCOC(CF)C2)nc2n1CC[C@@H](C(F)(F)F)N2Cc1ccccc1", "note": "(single isomer, unassigned) [Example 194]", "values": [
      {"measurement": "IC50", "result": "> 100", "unit": "nM"}
    ]},
    {"smiles": "CC(=O)CN1c2nc(N3CCOC[C@H]3C)c(F)c(=O)n2CC[C@H]1C(F)(F)F", "note": "[Example 7, (S)-3-Fluoro-2-((R)-3-methylmorpholin-4-yl)-9-(2-oxopropyl)-8-trifluoromethyl-6,7,8,9-tetrahydro-pyrimido[1,2-a]-pyrimidin-4-one]", "values": [
      {"measurement": "IC50", "result": "< 10", "unit": "nM"}
    ]},
    {"smiles": "C[C@@H]1COCCN1c1nc2n(c(=O)c1F)[C@@H](C(F)(F)F)CCN2Cc1nc(C(F)(F)F)no1", "note": "[Example 28, (R)-3-Fluoro-2-((R)-3-methylmorpholin-4-yl)-6-trifluoromethyl-9-(3-trifluoromethyl-[1,2,4]oxadiazol-5-yl-methyl)-6,7,8,9-tetrahydro-pyrimido[1,2-a]-pyrimidin-4-one]", "values": [
      {"measurement": "IC50", "result": "< 10", "unit": "nM"}
    ]},
    {"smiles": "C[C@@H]1COCCN1c1cc(=O)n2c(n1)N(CC1(C3CC3)CCO1)[C@H](C(F)(F)F)CC2", "note": "(single isomer, unassigned) [Example 308]", "values": [
      {"measurement": "IC50", "result": "< 10", "unit": "nM"}
    ]},
    {"smiles": "C[C@@H]1COCCN1c1cc(=O)n2c(n1)N(CC1COC1)[C@H](C(F)(F)F)CC2", "note": "[Example 133, (S)-2-((R)-3-Methyl-morpholin-4-yl)-9-oxetan-3-ylmethyl-8-trifluoromethyl-6,7,8,9-tetrahydro-pyrimido[1,2-a]-pyrimidin-4-one]", "values": [
      {"measurement": "IC50", "result": "< 10", "unit": "nM"}
    ]}
  ]
}
